# Columns and labels:
# Test in all cases: Post-emergence efficacy, glasshouse spray test
# Assay type in all cases: in vivo
# [1] = tested on: Amaranthus palmeri (AMAPA); settings: Amaranthus palmeri, post-emergence, 312 h; application rate 1000 g/Ha; evaluated after 13 days; read-out: Control of weed species AMAPA after post-emergence application (100=total damage to plant; 0=no damage to plant)
# Procedure: (§1) Seeds of a variety of test species were sown in standard soil in pots. After cultivation for 14 days (post-emergence) under controlled conditions in a glasshouse (at 24/16° C., day/night; 14 hours light; 65% humidity), the plants were sprayed with an aqueous spray solution derived from the dissolution of the technical active ingredient formula (I) in a small amount of acetone and a special solvent and emulsifier mixture referred to as IF50 (11.12% Emulsogen EL360 TM+44.44% N-methylpyrrolidone+44.44% Dowanol DPM glycol ether), to create a 50 g/l solution which was then diluted to required concentration using 0.25% or 1% Empicol ESC70 (Sodium lauryl ether sulphate)+1% ammonium sulphate as diluent. The test plants were then grown in a glasshouse under controlled conditions (at 24/16° C., day/night; 14 hours light; 65% humidity) and watered twice daily. After 13 days the test was evaluated (100=total damage to plant; 0=no damage to plant).
# (§2) Ipomoea hederacea (IPOHE), Euphorbia heterophylla (EPHHL), Chenopodium album (CHEAL), Amaranthus palmeri (AMAPA), Lolium perenne (LOLPE), Digitaria sanguinalis (DIGSA), Eleusine indica (ELEIN), Echinochloa crus-galli (ECHCG), Setaria faberi (SETFA)
# [2] = tested on: Chenopodium album (CHEAL); settings: Chenopodium album, post-emergence, 312 h, evaluated after 13 days, read-out: Control of weed species CHEAL after post-emergence application (100=total damage to plant; 0=no damage to plant); for pest or weed control at 1000 g/ha: application rate 1000 g/Ha; for pest or weed control at 500 g/ha: application rate 500 g/Ha
# Procedure: as §1, §2
# [3] = tested on: Digitaria sanguinalis (DIGSA); settings: Digitaria sanguinalis, post-emergence, 312 h, evaluated after 13 days, read-out: Control of weed species DIGSA after post-emergence application (100=total damage to plant; 0=no damage to plant); for pest or weed control at 1000 g/ha: application rate 1000 g/Ha; for pest or weed control at 500 g/ha: application rate 500 g/Ha
# Procedure: as §1, §2
# [4] = tested on: Echinochloa crus-galli (ECHCG); settings: Echinochloa crus-galli, post-emergence, 312 h, evaluated after 13 days, read-out: Control of weed species ECHCG after post-emergence application (100=total damage to plant; 0=no damage to plant); for pest or weed control at 1000 g/ha: application rate 1000 g/Ha; for pest or weed control at 500 g/ha: application rate 500 g/Ha
# Procedure: as §1, §2
# Eleusine indica (ELEIN) = settings: Eleusine indica, post-emergence, 312 h, evaluated after 13 days, read-out: Control of weed species ELEIN after post-emergence application (100=total damage to plant; 0=no damage to plant); for pest or weed control at 1000 g/ha: application rate 1000 g/Ha; for pest or weed control at 500 g/ha: application rate 500 g/Ha
# Procedure: as §1, §2
# [5] = tested on: Euphorbia heterophylla (EPHHL); settings: Euphorbia heterophylla, post-emergence, 312 h, evaluated after 13 days, read-out: Control of weed species EPHHL after post-emergence application (100=total damage to plant; 0=no damage to plant); for pest or weed control at 1000 g/ha: application rate 1000 g/Ha; for pest or weed control at 500 g/ha: application rate 500 g/Ha
# Procedure: as §1, §2
# [6] = tested on: Ipomoea hederacea (IPOHE); settings: Ipomoea hederacea, post-emergence, 312 h, evaluated after 13 days, read-out: Control of weed species IPOHE after post-emergence application (100=total damage to plant; 0=no damage to plant); for pest or weed control at 1000 g/ha: application rate 1000 g/Ha; for pest or weed control at 500 g/ha: application rate 500 g/Ha
# Procedure: as §1, §2
# Lolium perenne (LOLPE) = settings: Lolium perenne, post-emergence, 312 h, evaluated after 13 days, read-out: Control of weed species LOLPE after post-emergence application (100=total damage to plant; 0=no damage to plant); for pest or weed control at 1000 g/ha: application rate 1000 g/Ha; for pest or weed control at 500 g/ha: application rate 500 g/Ha
# Procedure: as §1, §2
# Setaria faberi (SETFA) = settings: Setaria faberi, post-emergence, 312 h, evaluated after 13 days, read-out: Control of weed species SETFA after post-emergence application (100=total damage to plant; 0=no damage to plant); for pest or weed control at 1000 g/ha: application rate 1000 g/Ha; for pest or weed control at 500 g/ha: application rate 500 g/Ha
# Procedure: as §1, §2
SMILES,pest or weed control at 1000 g/ha [2],pest or weed control at 1000 g/ha [3],pest or weed control at 1000 g/ha [4],pest or weed control at 1000 g/ha (Eleusine indica (ELEIN)),pest or weed control at 1000 g/ha [5],pest or weed control at 1000 g/ha [6],pest or weed control at 1000 g/ha (Lolium perenne (LOLPE)),pest or weed control at 1000 g/ha (Setaria faberi (SETFA)),pest or weed control at 500 g/ha [2],pest or weed control at 500 g/ha [3],pest or weed control at 500 g/ha [4],pest or weed control at 500 g/ha (Eleusine indica (ELEIN)),pest or weed control at 500 g/ha [5],pest or weed control at 500 g/ha [6],pest or weed control at 500 g/ha (Lolium perenne (LOLPE)),pest or weed control at 500 g/ha (Setaria faberi (SETFA)),further results
"COC(=O)C[n+]1ccc2ccccc2n1 [Compound A1, methyl 2-cinnolin-2-ium-2-ylacetate bromide]",60%,70%,70%,100%,90%,50%,40%,60%,,,,,,,,,pest or weed control at 1000 g/ha [1]: 100%
Cc1ccc2n[n+](CCS(=O)(=O)[O-])cc(C)c2c1 [Compound A33],10%,40%,50%,30%,60%,30%,0%,40%,,,,,,,,,
O=S(=O)([O-])CC[n+]1ccc2cc(Br)ccc2n1 [Compound A34],20%,40%,40%,30%,40%,20%,10%,20%,,,,,,,,,
Cc1c[n+](CCS(=O)(=O)[O-])nc2c(C)cccc12 [Compound A35],0%,30%,20%,20%,30%,20%,10%,0%,,,,,,,,,
Cc1cccc2cc[n+](CCS(=O)(=O)[O-])nc12 [Compound A36],,80%,70%,90%,30%,30%,20%,40%,,,,,,,,,
COC(=O)c1cccc(C[n+]2ccc3ccccc3n2)c1 [Compound A90],,10%,10%,20%,30%,10%,0%,0%,,,,,,,,,pest or weed control at 1000 g/ha [1]: 20%
O=C(O)c1cccc(C[n+]2ccc3ccccc3n2)c1 [Compound A91],20%,20%,40%,20%,40%,10%,10%,20%,,,,,,,,,
O=S(=O)(O)c1ccc(C[n+]2ccc3ccccc3n2)cc1 [Compound A92],0%,20%,30%,30%,50%,40%,10%,10%,,,,,,,,,
CN(C)C(=O)c1ccc2n[n+](CCS(=O)(=O)[O-])ccc2c1 [Compound A101],,,,,,,,,60%,70%,60%,80%,70%,40%,20%,70%,
"CN(C)C(=O)c1cccc2cc[n+](CCS(=O)(=O)[O-])nc12 [Compound A102, 2-[8-(dimethylcarbamoyl)cinnolin-2-ium-2-yl]ethanesulfonate]",,,,,,,,,100%,80%,70%,100%,60%,70%,30%,90%,
CC(=O)Nc1ccc2n[n+](CCS(=O)(=O)[O-])ccc2c1 [Compound A104],,,,,,,,,,,,,,,,,pest or weed control at 125 g/ha ([2]; application rate 125 g/Ha): 30%; pest or weed control at 125 g/ha ([3]; application rate 125 g/Ha): 60%; pest or weed control at 125 g/ha ([4]; application rate 125 g/Ha): 60%; pest or weed control at 125 g/ha (Eleusine indica (ELEIN); application rate 125 g/Ha): 80%; pest or weed control at 125 g/ha ([5]; application rate 125 g/Ha): 50%; pest or weed control at 125 g/ha ([6]; application rate 125 g/Ha): 10%; pest or weed control at 125 g/ha (Lolium perenne (LOLPE); application rate 125 g/Ha): 20%; pest or weed control at 125 g/ha (Setaria faberi (SETFA); application rate 125 g/Ha): 70%
CC(=O)Nc1ccc2cc[n+](CCS(=O)(=O)[O-])nc2c1 [Compound A105],,,,,,,,,70%,60%,50%,80%,30%,20%,20%,70%,
CN(C)C(=O)c1ccc2cc[n+](CCS(=O)(=O)[O-])nc2c1 [Compound A106],,,,,,,,,80%,70%,80%,100%,30%,20%,30%,100%,
